These results are taken from ChEMBL document CHEMBL6103619, “Discovery of a Novel CRBN-Recruiting cGAS PROTAC Degrader for the Treatment of Ulcerative Colitis” (J Med Chem, 2025).

Holding throughout (format): cell-based
The target of assay [1] is Protein cereblon/Cyclic GMP-AMP synthase (Homo sapiens, UniProt Q96SW2+Q8N884). Kind of assay: PROTAC activity at CRBN/cGAS in human THP-1 cells assessed as induction of cGAS degradation at 10 uM preincubated with compound for 40 hrs followed by HT-DNA stimulation and measured after 8 hrs by Western blot analysis relative to control. The settings on record: time 48.0 hrs.
Chain of Protein cereblon/Cyclic GMP-AMP synthase (Q8N884 whole entry, looked up): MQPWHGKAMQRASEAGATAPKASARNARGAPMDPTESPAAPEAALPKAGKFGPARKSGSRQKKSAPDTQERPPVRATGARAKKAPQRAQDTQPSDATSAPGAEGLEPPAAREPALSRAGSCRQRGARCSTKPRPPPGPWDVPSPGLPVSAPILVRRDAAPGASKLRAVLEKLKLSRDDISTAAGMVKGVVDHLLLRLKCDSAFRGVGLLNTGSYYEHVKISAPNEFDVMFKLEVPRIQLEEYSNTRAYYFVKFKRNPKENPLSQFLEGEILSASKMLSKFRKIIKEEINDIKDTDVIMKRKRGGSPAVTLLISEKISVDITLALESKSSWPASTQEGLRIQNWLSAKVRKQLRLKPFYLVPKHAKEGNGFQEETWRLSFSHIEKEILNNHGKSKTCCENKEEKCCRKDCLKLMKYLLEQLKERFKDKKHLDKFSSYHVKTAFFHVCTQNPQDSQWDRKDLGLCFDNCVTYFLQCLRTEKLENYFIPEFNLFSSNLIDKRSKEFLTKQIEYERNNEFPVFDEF
Chain of Protein cereblon/Cyclic GMP-AMP synthase (Q96SW2 whole entry, looked up): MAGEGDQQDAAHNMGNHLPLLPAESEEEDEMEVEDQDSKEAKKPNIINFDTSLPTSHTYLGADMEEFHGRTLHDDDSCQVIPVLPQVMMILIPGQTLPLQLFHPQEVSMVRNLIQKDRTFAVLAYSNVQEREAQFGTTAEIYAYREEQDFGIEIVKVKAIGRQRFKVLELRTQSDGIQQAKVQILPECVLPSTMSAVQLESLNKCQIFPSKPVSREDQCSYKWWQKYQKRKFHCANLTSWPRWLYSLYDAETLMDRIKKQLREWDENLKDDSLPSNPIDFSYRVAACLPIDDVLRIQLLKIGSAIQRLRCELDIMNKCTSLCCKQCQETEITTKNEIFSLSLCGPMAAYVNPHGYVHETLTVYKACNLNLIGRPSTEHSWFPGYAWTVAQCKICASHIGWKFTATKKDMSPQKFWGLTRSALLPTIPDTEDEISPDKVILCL

Assay [2] in a line: Inhibition of dsDNA-induced cGAS signaling pathway in human THP1-Lucia ISG cells preincubated with compound for 24 hrs followed by HT-DNA addition and measured after 24 hrs by QUANTI-Luc luciferase reagent based assay.
A short description of assay [3]: Inhibition of dsDNA-induced cGAS signaling pathway in mouse RAW-Lucia ISG cells preincubated with compound for 24 hrs followed by HT-DNA addition and measured after 24 hrs by QUANTI-Luc luciferase reagent based assay.

`O=C1CCC(N2C(=O)c3cccc(NCCCCCCCCC(=O)N4CCC(Cn5cc(-c6cc(Cl)c(Cl)c7[nH]c8c(c67)CN(C(=O)CO)CC8)cn5)CC4)c3C2=O)C(=O)N1` (stereo not given): the Activity in assay [1] was determined as 23.9%. Besides, the IC50 in assay [2] and in assay [3] was over 50 µM in each case.

On to `Cn1ccc(-c2cc(Cl)c(Cl)c3[nH]c4c(c23)CN(C(=O)CNC(=O)CCCCC#Cc2ccc3c(c2)CN(C2CCC(=O)NC2=O)C3=O)CC4)n1` (stereo not given), for which the Activity in assay [1] amounted to 21.9%. Also, the IC50 in assay [2] and in assay [3] was over 50 µM throughout.

Take `Cn1ccc(-c2cc(Cl)c(Cl)c3[nH]c4c(c23)CN(C(=O)CNC(=O)CC2CCN(C(=O)COc3cccc5c3C(=O)N(C3CCC(=O)NC3=O)C5=O)CC2)CC4)n1` (stereo not given): the Activity in assay [1] amounted to 6.3%. The IC50 in assay [2] and in assay [3] was over 50 µM throughout.

Regarding `Cn1ccc(-c2cc(Cl)c(Cl)c3[nH]c4c(c23)CN(C(=O)CNC(=O)COCCNc2cccc3c2C(=O)N(C2CCC(=O)NC2=O)C3=O)CC4)n1` (stereo not given), the Activity in assay [1] came to 38.2%. Also, the IC50 (in general, the concentration that gives 50% inhibition) was 34.2 µM in assay [2] and over 50 µM in assay [3].

As to `Cn1ccc(-c2cc(Cl)c(Cl)c3[nH]c4c(c23)CN(C(=O)CNC(=O)CCOCCOCCOCCOCCNc2cccc3c2C(=O)N(C2CCC(=O)NC2=O)C3=O)CC4)n1` (stereo not given), the Activity in assay [1] was determined as 20.5%. Besides, the IC50 in assay [2] and in assay [3] was over 50 µM each time.

`Cn1ccc(-c2cc(Cl)c(Cl)c3[nH]c4c(c23)CN(C(=O)CNC(=O)CCCCCNc2cccc3c2C(=O)N(C2CCC(=O)NC2=O)C3=O)CC4)n1` (stereo not given): the Activity in assay [1] is 59.3%. Further, the IC50 came to 12.5 µM in assay [2] and 26.7 µM in assay [3].

In the case of `Cn1ccc(-c2cc(Cl)c(Cl)c3[nH]c4c(c23)CN(C(=O)CNC(=O)CN2CCN(C(=O)COc3cccc5c3C(=O)N(C3CCC(=O)NC3=O)C5=O)CC2)CC4)n1` (stereo not given), in assay [1], the Activity was 18.7%. Further, the IC50 in assay [2] and in assay [3] was over 50 µM each time.

Turning to `Cn1ccc(-c2cc(Cl)c(Cl)c3[nH]c4c(c23)CN(C(=O)CNC(=O)CCCCC#Cc2cccc3c2CN(C2CCC(=O)NC2=O)C3=O)CC4)n1` (stereo not given), the Activity in assay [1] is 57.7%. For the same compound, the IC50 in assay [2] turned out to be 8.8 µM; in assay [3], 15.1 µM.

For `Cn1ccc(-c2cc(Cl)c(Cl)c3[nH]c4c(c23)CN(C(=O)CNC(=O)CCC2CCN(C(=O)COc3cccc5c3C(=O)N(C3CCC(=O)NC3=O)C5=O)CC2)CC4)n1` (stereo not given), the Activity in assay [1] came out at 18.9%. In addition, the IC50 in assay [2] and in assay [3] was over 50 µM each time.

Regarding `O=C1CCC(N2C(=O)c3cccc(NCCCCC(=O)N4CCC(Cn5cc(-c6cc(Cl)c(Cl)c7[nH]c8c(c67)CN(C(=O)CO)CC8)cn5)CC4)c3C2=O)C(=O)N1` (stereo not given), in assay [1], the Activity worked out at 10.5%. The IC50 in assay [2] and in assay [3] was over 50 µM in each case.

On to `O=C1CCC(N2C(=O)c3cccc(NCCCCCCCC(=O)N4CCC(Cn5cc(-c6cc(Cl)c(Cl)c7[nH]c8c(c67)CN(C(=O)CO)CC8)cn5)CC4)c3C2=O)C(=O)N1` (stereo not given), for which the Activity in assay [1] came out at 35.6%. Besides, the IC50 in assay [2] and in assay [3] was over 50 µM throughout.

With `Cn1ccc(-c2cc(Cl)c(Cl)c3[nH]c4c(c23)CN(C(=O)CNC(=O)CCN2CCN(C(=O)COc3cccc5c3C(=O)N(C3CCC(=O)NC3=O)C5=O)CC2)CC4)n1` (stereo not given), the Activity in assay [1] is 15.1%. The IC50 in assay [2] and in assay [3] was over 50 µM throughout.

On to `Cn1ccc(-c2cc(Cl)c(Cl)c3[nH]c4c(c23)CN(C(=O)CNC(=O)COCCOCCOCCNc2cccc3c2C(=O)N(C2CCC(=O)NC2=O)C3=O)CC4)n1` (stereo not given), for which, in assay [1], the Activity was 34.6%. Besides, the IC50 in assay [2] was 28.1 µM; in assay [3], over 50 µM.

For `Cn1ccc(-c2cc(Cl)c(Cl)c3[nH]c4c(c23)CN(C(=O)CCCCC#Cc2cccc3c2CN(C2CCC(=O)NC2=O)C3=O)CC4)n1` (stereo not given), in assay [1], the Activity is 45.1%. In addition, the values for the half-maximal inhibitory concentration (IC50) in assay [2] and in assay [3] were 28.4 µM and over 50 µM, respectively.

On to `Cn1ccc(-c2cc(Cl)c(Cl)c3[nH]c4c(c23)CN(C(=O)CCCC#Cc2cccc3c2CN(C2CCC(=O)NC2=O)C3=O)CC4)n1` (stereo not given), for which the Activity in assay [1] was 40.4%. The values for the IC50 in assay [2] and in assay [3] were 25.6 µM and 35.6 µM, respectively.
